Assay results as given in patent US20190274303A1, “USE OF A DIFLUORO-(2-HYDROXYPROPYL)PYRIDINE COMPOUND AS A FUNGICIDE FOR CONTROL OF PHYTOPATHOGENIC FUNGI OF BARLEY” (Dow AgroSciences LLC, priority 2016, published 2019).

Tested on: Pyrenophora teres (PYRNTE)
Assay: Field assessment of net blotch of barley
Assay type: in vivo
Details: for Percent Control PYRNTE: based on AUDPC, barley, field
Method: Field Assessment of Pyrenophora teres (PYRNTE) in Barley:
A fungicidal treatment containing Compound I was assessed against net blotch of barley (PYRNTE) in two separate field trials. In each trial, fungicidal treatments of Compound I were applied using two separate adjuvant systems. In the first system, an EC formulation of compound I was tank mixed with Agnique BP-420 (50%) at an active:adjuvant ratio of 1:2. The second adjuvant system was an SC formulation of Compound I tank mixed with Agnique BP-420 EW (38.5%) at an active:adjuvant ratio of 1:2 and Agnique FOH TDA-9 (30% w/w) applied at 0.33% V/V. Both the EC and SC formulation was sprayed on barley plants at rates of 25, 50, 75, 100, 150, 200 and 250 grams active ingredient per hectare (g ai/ha). In the first trial, fungicidal treatments of Compound I were applied at B39 (early curative, 1% infection on leaf 1) growth stage of winter barley (HORVW, Lomerit variety) under natural infection of PYRNTE. The treatment was part of an experimental trial designed as a randomized complete block with four replications. In the second trial, fungicidal treatments of Compound I were applied at B37 (protectant, 1% infection on leaf 4) growth stage of spring barley (HORVS, Scarlett variety) under natural infection of PYRNTE. The treatment was part of an experimental trial designed as a randomized complete block with four replications.
Disease severity was recorded as a percentage of visual diseased foliage on whole plot. Net blotch of barley infection was recorded following EPPO PP1/26 guideline prescriptions. Area under the disease progress curve (AUDPC) was calculated for each plot using the sets of recorded severity data. Relative AUDPC (% control based on AUDPC) was calculated as percent of the nontreated control.
In each case of the following Tables, the rating scale of percent control based on AUDPC is as follows: […]

## N#Cc1ccc(Oc2ccc(C(F)(F)C(O)(Cn3ncnc3S)c3ccc(F)cc3F)nc2)cc1 (stereo not drawn) [Compound I, 4-((6-(2-(2,4-difluorophenyl)-1,1-difluoro-2-hydroxy-3-(5-mercapto-1H-1,2,4-triazol-1-yl)propyl)pyridin-3-yl)oxy)benzonitrile]
25 g ai/ha, EC + Agnique BP-420
  Percent Control PYRNTE: D (1-25)
25 g ai/ha, SC + Agnique BP-420 EW and Agnique FOH TDA-9
  Percent Control PYRNTE: D (1-25)
50 g ai/ha, EC + Agnique BP-420
  Percent Control PYRNTE: D (1-25)
50 g ai/ha, SC + Agnique BP-420 EW and Agnique FOH TDA-9
  Percent Control PYRNTE: D (1-25)
75 g ai/ha, EC + Agnique BP-420
  Percent Control PYRNTE: D (1-25)
75 g ai/ha, SC + Agnique BP-420 EW and Agnique FOH TDA-9
  Percent Control PYRNTE: D (1-25)
100 g ai/ha, EC + Agnique BP-420
  Percent Control PYRNTE: D (1-25)
100 g ai/ha, SC + Agnique BP-420 EW and Agnique FOH TDA-9
  Percent Control PYRNTE: C (26-50)
150 g ai/ha, EC + Agnique BP-420
  Percent Control PYRNTE: C (26-50)
150 g ai/ha, SC + Agnique BP-420 EW and Agnique FOH TDA-9
  Percent Control PYRNTE: C (26-50)
200 g ai/ha, EC + Agnique BP-420
  Percent Control PYRNTE: C (26-50)
200 g ai/ha, SC + Agnique BP-420 EW and Agnique FOH TDA-9
  Percent Control PYRNTE: B (51-74)
250 g ai/ha, EC + Agnique BP-420
  Percent Control PYRNTE: B (51-74)
250 g ai/ha, SC + Agnique BP-420 EW and Agnique FOH TDA-9
  Percent Control PYRNTE: B (51-74)
Net blotch of barley, general statement
  fungicidal effect on Pyrenophora teres: significant fungicidal effect
